≈ marks a conversion by molar mass, not a printed value.
Tests used:
[1] = Partition coefficient (Log P), shaking flask method (HPLC-UV); format: physicochemical; details: octanol/water
Excerpt: As well-known to the skilled person, when expressing lipophilicity as log P, P is the partition coefficient; that is the ratio of the concentrations of the compound between a hydrophobic phase and a hydrophilic phase (forming a biphasic liquid mixture), generally water and octanol.
(§1) The measurement of log P is well described in the literature—see e.g. Román, I. P.; Mastromichali, A.; Tyrovola, K.; Canals, A.; Psillakis, E. Rapid Determination of Octanol-Water Partition Coefficient Using Vortex-Assisted Liquid-Liquid Microextraction. J. Chromatogr. A 2014, 1330, 1-5; and Yiantzi, E.; Psillakis, E.; Tyrovola, K.; Kalogerakis, N. Vortex-Assisted Liquid-Liquid Microextraction of Octylphenol, Nonylphenol and Bisphenol-A. Talanta 2010, 80 (5), 2057-2062, both of which are incorporated herein by reference.
as §1, with “Partition coefficients (Log P) were determined using” for “The measurement of log P is well described in”, “shaking flask method (HPLC-UV)—see” for “literature—see e.g.”

[2] = test system: N. gonorrhoeae (LNP16626); test: Bacterial survival assay (3 h), CFU counts; format: cell-based, Neisseria gonorrhoeae; details: 50 μM, 3 h, CFU counts
Procedure: (§2) Bacterial Survival Assay (3 h)
(§3) To measure bacterial survival (FIGS. 2 and 4), different bacteria were exposed to various concentrations of the compounds (as indicated) in their specific growth media (see the culture conditions above) for 3 h at 37° C. To perform this assay, all strains were grown overnight in their corresponding agar media. Cell-suspension corresponding to an OD600=0.05 were subsequently prepared. In parallel, fresh stock DMSO solutions of the compounds were prepared (100×, with final concentrations being indicated in the different figures) and 1.8 μL of the corresponding solutions were added per well of 96-well plates. In each well, 178.2 μL of bacterial suspension were subsequently added. Bacteria were allowed to grow during […] at 37° C. with 5% CO2. After incubation, serial dilutions (until 10^−6) were performed and 50 μL of each diluted solution were spread on agar plates. After an overnight incubation at 37° C. with/without 5% CO2, CFU were enumerated. All these assays were performed at least in triplicates.
(§4) Therefore, the bactericidal activity was assessed for the 4 compounds harboring a BPh4^− identified from the initial screen described above (AnIII-7, AnIII-6, AnII-18, NaBPh4). N. meningitidis was treated with 50 μM of each compound and the % survival cells (compared with DMSO 1% control) was measured using serial dilutions and CFU counts. […] To verify if the bactericidal effect could be observed for the other pathogen of the Neisseria family, a clinical isolate of. N. gonorrhoeae (LNP16626 [3]) was also treated with 50 μM of the same compounds, respectively, using the same assay.
(§5) The MBC (minimum bactericidal concentration that kill >99.999%), the concentration necessary to completely abrogate bacterial survival after a 3 h exposure to NaBPh4, was next assessed.

N. meningitidis = test: Bacterial survival assay (3 h), CFU counts; format: cell-based, Neisseria meningitidis; details: 50 μM, 3 h, CFU counts vs DMSO 1% control
Procedure: as §2, §3, §4, §5

[3] = test system: N. meninigitidis (LNP24198) expressing luciferase (LuxABCDE); test: N. meningitidis luminescent strain growth assay (16 h); format: cell-based, Neisseria meningitidis; details: for MIC: 16 h
Procedure: N. meningitidis Luminescent Strain Growth Assay (16 h)
To perform the library screening (FIG. 1) or to compare the activity of the different boron-containing salts (FIG. 3), the amount of light produced after 16 h of growth for N. meningitidis luminescent strain was measured. Contrarily to optical density (OD) readings which can be misleading due to the absorbance of dead cells, this measurement is directly correlated to the number of live cells, as the half-life of the luciferase and its substrate are limited and that the emission of light is therefore not subsisting after the death of the cells. To perform this assay, N. meninigitidis (LNP24198) expressing luciferase (LuxABCDE) was grown overnight under the control of the constitutive promoter porBp in GCB agar media, and a cell-suspension corresponding to an OD600=0.01 was subsequently prepared. In parallel, fresh stock DMSO solutions of the compounds were prepared (100×, with final concentrations being indicated in the different figures) and 1.8 μL of the corresponding solutions were added per well of 96-well plates. In each well, 178.2 μL of bacterial suspension were subsequently added. Bacteria were allowed to grow during 16 h at 37° C. with 5% CO2. The emitted light was measured using a 96-well plate luminometer (PerkinElmer Wallac 1420 Victor^3) and results are expressed in relative light unit (RLU). All these assays were performed at least in triplicates.
To screen molecules for their antibacterial activity, a luminescent system was used, as previously described for other bacteria. A clinical isolate of N. meninigitidis (LNP24198) expressing luciferase (LuxABCDE) under the control of the constitutive promoter porBp was used, as similarly described, located in the intergenic region next to NMB1732. More than 2400 compounds from different origins were screened to identify candidates with the ability to inhibit the growth of N. meningitidis after 16 h at 37° C. […] It is noteworthy that stock solutions for all tested compounds were prepared in DMSO and that the final DMSO concentration of the tested solutions was kept at 1%, a concentration which has proven not to affect the growth of N. meningitidis (FIG. 1A). […] An investigation of the effect of the BPh4^− moiety was then pursued.
To exclude any salt-specific effect, the effect of several BPh4^− and BF4^− salts on the growth of N. meningitidis luminescent strain was tested. The growth of N. meningitidis was measured after a 16 h-exposure to different concentrations of various BPh4^− and BF4^− salts. From this assay, the MIC (minimum inhibitory concentration, the lowest concentration that prevents visible bacterial growth, <800 RLU) was calculated. All BPh4 salts tested (sodium, ammonium and potassium) were all highly toxic for N. meningitidis.
Several borate compounds were prepared and their ability to inhibit N. meningitidis growth was assessed using the luminescent system described at Example 2.

[4] = minimum inhibitory concentration, N. meningitidis growth, luminescent system (<800 RLU)

Compound | MIC [3, 4] | logP [1] | MIC ([3]; Neisseria meningitidis) [µM] | further results
F[B-](F)(F)F [BF4, reference compound] |  |  |  | Log P [1]: about −1.6; survival of N. gonorrhoeae [2]: does not exhibit anti-bacterial activity; survival of N. meningitidis (N. meningitidis): does not exhibit anti-bacterial activity
c1ccc(B(c2ccccc2)c2ccccc2)cc1 [BPh3, triphenylborane, reference compound] |  |  |  | toxicity / effect on growth of N. meningitidis luminescent strain (FIG. 3) ([3]; 16 h-exposure, different concentrations): No observable toxicity
F[B-](F)(F)c1ccccc1.[K+] [Compound 2, Potassium trifluoro(phenyl)borate, reference compound] | >250 µM |  |  | 
C[B-](c1ccccc1)(c1ccccc1)c1ccccc1 [Compound 5, Sodium methyltriphenylborate] |  | -0.96 ± 0.1 | 25 | 
CC[B-](c1ccccc1)(c1ccccc1)c1ccccc1 [Compound 6, Sodium ethyltriphenylborate] |  | 0 | 25 | 
CCC[B-](c1ccccc1)(c1ccccc1)c1ccccc1 [Compound 7, Sodium n-propyltriphenylborate] |  | 0.8 ± 0.2 | 5 | 
CCCCCC[B-](c1ccccc1)(c1ccccc1)c1ccccc1 [Compound 9, Sodium hexyltriphenylborate] |  | 2.83 ± 0.02 | 1 | 
CCCCCCC[B-](c1ccccc1)(c1ccccc1)c1ccccc1 [Compound 10, Sodium heptyltriphenylborate] |  | 3.1 ± 0.05 | 1 | 
CCCCCCCC[B-](c1ccccc1)(c1ccccc1)c1ccccc1 [Compound 11, Sodium octyltriphenylborate] |  | 4.1 ± 0.3 | 1 | 
Cc1ccc([B-](c2ccccc2)(c2ccccc2)c2ccccc2)cc1.[Na+] [Compound 12, Sodium tolyltriphenylborate] | 25 µM |  |  | Log P [1]: 0.41±0.02
Cc1ccc([B-](c2ccccc2)(c2ccc(C)cc2)c2ccc(C)cc2)cc1.[Na+] [Compound 14, Sodium tris(4-methylphenyl)(phenyl)borate] | 5 µM |  |  | Log P [1]: 2.5±0.2
Cc1ccc([B-](c2ccc(C)cc2)(c2ccc(C)cc2)c2ccc(C)cc2)cc1.[Na+] [Compound 15, sodium tetrakis(tolyl)borate] | Active but MIC not determined because of abnormal background signal |  |  | 
Fc1ccc([B-](c2ccc(F)cc2)(c2ccc(F)cc2)c2ccc(F)cc2)cc1 [Compound 16, sodium tetrakis(4-fluorophenyl)borate] |  |  | 2.5 | 
Oc1ccc2ccccc2c1/C=N/c1ccc([B-](c2ccccc2)(c2ccccc2)c2ccccc2)cc1 [Compound 19, sodium {4-[(E)-[(2-hydroxynaphthalen-1-yl)methylidene]amino]phenyl}triphenylborate] |  |  | 2.35 | 
c1ccc(P(c2ccccc2)c2nc3ccccc3n2Cc2ccc([B-](c3ccccc3)(c3ccccc3)c3ccccc3)cc2)cc1 [Compound 21] |  |  | 0.78 | 
c1ccc([B-]2(c3ccccc3)[NH2+]CCO2)cc1 [Compound 22] |  |  | 75 (≈ 16.9 µg/mL) | 
CC[C@H]1OC(=O)[C@H](C)[C@@H](O[C@H]2C[C@@](C)(OC)[C@@H](O)[C@H](C)O2)[C@H](C)[C@@H](O[C@@H]2O[C@H](C)C[C@H](N(C)C)[C@H]2O)[C@](C)(O)C[C@@H](C)C(=O)[C@H](C)[C@@H](O)[C@]1(C)O [erythromycin, reference compound] |  |  |  | emitted light after 16 h of growth ([3]; erythromycin 3.5 μM, largest value of 10 replicates): < 800 RLU
Potassium difluorodiphenylborate [Compound 3] | 37.5 µM |  |  | 
Sodium bis(4-methylphenyl)diphenylborate [Compound 13] | 5 µM |  |  | Log P [1]: 2.0±0.1
Sodium tetrafluoroborate [Compound 4, reference compound] | >250 µM |  |  | 
